According to BindingDB's records for doi:10.1016/j.bmcl.2004.08.011 (Abbott Laboratories, 2004):

Target: Protein farnesyltransferase subunit beta/geranylgeranyltransferase type-1 subunit alpha (Mus musculus, UniProt Q61239+Q8K2I1)
Assay: Inhibition of H-Ras transformed NIH-3T3-cell proliferation

EC50 [µM]	SMILES
0.034	CCOc1cccc(-c2cc(C#N)ccc2COCc2cncn2Cc2ccc(Cl)cc2)c1 [6-(((1-(4-chlorobenzyl)-1H-imidazol-5-yl)methoxy)methyl)-3'-ethoxybiphenyl-3-carbonitrile]
0.0012	N#Cc1ccc(Cn2cncc2COc2ccc(C#N)c(-c3cccc4ccccc34)c2)cc1 [4-((1-(4-cyanobenzyl)-1H-imidazol-5-yl)methoxy)-2-(naphthalen-1-yl)benzonitrile]
0.077	CC(=O)c1ccc(-c2cc(C#N)ccc2COCc2cncn2Cc2ccc(C#N)cc2)cc1 [4'-acetyl-6-(((1-(4-cyanobenzyl)-1H-imidazol-5-yl)methoxy)methyl)biphenyl-3-carbonitrile]
0.06	N#Cc1ccc(OCc2cncn2Cc2ccc(C#N)c(-c3cccc4ccccc34)c2)nc1 [6-[3-(4-Cyano-3-naphthalen-1-yl-benzyl)-3H-imidazol-4-ylmethoxy]-nicotinonitrile]

The next lines start with the molecule.

SMILES	EC50 [µM]
N#Cc1ccc(COCc2cncn2Cc2ccc(C#N)cc2-c2cccc3ccccc23)cc1 [4-[5-(4-cyano-benzyloxymethyl)-imidazol-1-ylmethyl]-3-naphthalen-1-yl-benzonitrile]	0.461
CCOc1cccc(-c2cc(C#N)ccc2COCc2cncn2Cc2ccc(C#N)nc2)c1 [5-((5-(((5-cyano-3'-ethoxybiphenyl-2-yl)methoxy)methyl)-1H-imidazol-1-yl)methyl)picolinonitrile]	0.017
N#Cc1ccc(Cn2cncc2COCc2ccc(C#N)cc2-c2ccc(C(F)(F)F)cc2)cc1 [6-(((1-(4-cyanobenzyl)-1H-imidazol-5-yl)methoxy)methyl)-4'-(trifluoromethyl)biphenyl-3-carbonitrile]	0.0016
N#Cc1ccc(Cn2cncc2COCc2ccc(C#N)cc2-c2ccc3c(c2)OCO3)nc1 [6-((5-((2-(benzo[d][1,3]dioxol-5-yl)-4-cyanobenzyloxy)methyl)-1H-imidazol-1-yl)methyl)nicotinonitrile]	0.029
N#Cc1ccc(COCc2cncn2Cc2ccc(C#N)nc2)c(-c2ccc3c(c2)OCO3)c1 [5-[5-(2-Benzo[1,3]dioxol-5-yl-4-cyano-benzyloxymethyl)-imidazol-1-ylmethyl]-pyridine-2-carbonitrile]	0.016
N#Cc1ccc(Cn2cncc2COCc2ccc(C#N)cc2-c2cccc(Cl)c2)nc1 [6-[5-(3''-Chloro-5-cyano-biphenyl-2-ylmethoxymethyl)-imidazol-1-ylmethyl]-nicotinonitrile]	0.155
